In ChEMBL document CHEMBL1155873, “Sesquiterpenes from the Hainan Sponge Dysidea septosa” (J Nat Prod, 2008):

Molecular target: T1, Tyrosine-protein phosphatase non-receptor type 1 (Homo sapiens, UniProt P18031)
T1 sequence (P18031 whole entry): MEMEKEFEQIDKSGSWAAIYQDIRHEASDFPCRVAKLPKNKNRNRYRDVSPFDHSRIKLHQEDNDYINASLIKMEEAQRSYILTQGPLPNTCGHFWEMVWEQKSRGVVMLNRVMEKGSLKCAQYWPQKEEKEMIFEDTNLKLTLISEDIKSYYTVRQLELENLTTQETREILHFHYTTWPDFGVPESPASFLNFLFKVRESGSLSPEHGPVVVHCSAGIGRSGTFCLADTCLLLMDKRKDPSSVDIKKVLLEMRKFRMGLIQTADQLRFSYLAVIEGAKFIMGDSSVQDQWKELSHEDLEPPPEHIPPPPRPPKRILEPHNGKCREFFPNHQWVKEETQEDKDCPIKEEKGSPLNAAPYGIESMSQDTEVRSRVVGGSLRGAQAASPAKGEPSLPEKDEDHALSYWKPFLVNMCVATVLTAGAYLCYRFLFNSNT
Assay: Inhibition of human recombinant PTP1B catalytic domain

IC50	Structure (SMILES)
31.1 µM	C=C1CCC[C@@H](C)[C@@]1(C)CCc1ccoc1
8.78 µM	CC1=C[C@@H]2C[C@H](C)[C@]1(C)CCc1ccoc12
46.7 µM	C=C1C=CC[C@@H](C)[C@@]1(C)CCC1=CC(O)OC1=O (some centres undefined) [HYDROXYBUTENOLIDE]

Structure (SMILES)	IC50
C[C@@H]1[C@@H]2C=C[C@@](C)(OO2)[C@@]1(C)CCC1=CC(O)OC1=O (some centres undefined) [LINGSHUIPEROXIDE]	31.4 µM
